Experimental data as given in patent US20030069194A1, “Inhibition of viral replication by targeting RNA-DNA complexes” (priority 2001, published 2003).
Structures can show the parent of a compound that is named as a salt.

Columns and labels:
[1] = tested on: 18C-18R duplex (RNase H substrate of HIV-1 RT); test: RT-induced RNase H cleavage of the 18C-18R duplex (gel assay); format: biochemical; conditions: 18C-18R duplex; aminoglycosides 312.5 μM; FIG. 1b, 1d
Excerpt: The first model oligonucleotide was a 18mer chimeric duplex (18C-18R). 18C-18R mimics a RNase H substrate during minus-strand strong-stop synthesis. (FIG. 1a). Mueller, U. et al. Crystal structure of an eight-base pair duplex containing the 3′-DNA RNA-5′ junction formed during initiation of minus-strand synthesis of HIV replication, Biochemistry 37,12005-12011 (1998). […] Note that RT cleaves the RNA strand (18R) opposite the chimeric RNA-DNA strand (18C) at three sites (FIGS. 1a, b). The primary cleavage site lies between base positions +1 and +2 (counting from the RNA-DNA junction in the 5′ direction on the cleaved RNA strand). Two other minor cleavage sites lie between positions +3 and +4 and between positions −1 and +1, with the former site being cleaved to a greater extent than the latter site. Götte, M. et al., HIV-1 Reverse transcriptase-associated RNase H cleaves RNA/RNA in arrested complexes: Implications for the mechanism by which RNase H discriminates between RNA/RNA and RNA/DNA, EMBO J. 14, 833-841 (1995).
(§1) Recombinant HIV-1 RT p66 was isolated from Escherichia coli JM 109. Pandey, V. N. et al, Role of methionine 184 of human immunodeficiency virus type-1 reverse transcriptase in the polymerase function and fidelity of DNA synthesis, Biochemistry 35, 2168-2179 (1996). The 18C and 18R oligonucleotides were purchased from Dharmacon Research, Inc. (Lafayette, Colo.). The 18D oligonucleotide was obtained from Integrated DNA Technologies, Inc. (Coralville, Iowa). Neomycin trisulfate trihydrate, the free base of tobramycin, paromomycin sulfate, and kanamycin B sulfate were obtained from Fluka, while kanamycin A monosulfate and ribostamycin sulfate dihydrate were obtained from Sigma.
(§2) The RNase H activity of RT was assayed in a 10 μl reaction mixture containing 10 mM PIPES (pH 6.0) and 5 mM MgCl2. Ten pmol of either 18C or 18R were ^32P-labeled at the 5′ end using T4 polynucleotide kinase. For the cleavage experiments, different aminoglycosides were mixed with 0.5 μM of target duplex. A small amount of RT, 0.1 μg, was then added to initiate the cleavage reaction. After incubation at 37° C. for 30 min, the reaction was stopped by addition of 3 M urea containing a mixture of bromophenol blue and xylene cyanol. Denaturation of the 18C-18R duplex required the addition of 5 M urea as well as heating at 95° C. for 5 min prior to gel loading. The cleavage products were resolved in a 10% polyacrylamide gel containing 8 M urea. The gels were subsequently analyzed using a phosphoimager (Molecular Dynamics, Inc.).

[2] = tested on: 18C-18D duplex (RNase H substrate of HIV-1 RT); test: RT-induced RNase H cleavage of the 18C-18D duplex (gel assay); format: biochemical; conditions: 18C-18D duplex; aminoglycosides 2.0 mM; FIG. 2b, 2c
Excerpt: The second model oligonucleotide was a 18mer chimeric duplex (18C-18D). 18C-18D mimics a RNase H substrate during plus-strand strong-stop synthesis (FIG. 2a), which occurs following minus-strand DNA synthesis. Fedoroff, O. Y., et. al., B. R. Structural variation among retroviral primer-DNA junctions: Solution structure of the HIV-1 (−)-strand Okazaki fragment r(gcca)d(CTGC)-d(GCAGTGGC), Biochemistry 35,11070-11080 (1996). For the 18C-18D duplex, RT cleaves the RNA portion of the chimeric strand (18C) opposite the DNA strand (18D) at only a single site (FIGS. 2a, b), in marked contrast to the three cleavage sites observed in the 18C-18Rduplex. This unique cleavage site lies between base positions +1 and +2 (counting from the RNA-DNA junction in the 5′ direction on the cleaved chimeric strand). Furfine, E. S. & Reardon, J. E., Human immunodeficiency virus reverse transcriptase ribonuclease H: Specificity of tRNA(Lys3)-primer excision, Biochemistry 30, 7041-7046 (1991); Smith, J. S. & Roth, M. J. Specificity of human immunodeficiency virus-1 reverse transcriptase-associated ribonuclease H in removal of the minus-strand primer tRNA(Lys3), J. Biol. Chem. 267, 15071-15079 (1992). […] As noted above for the 18C-18R duplex, this hierarchy of cleavage inhibition correlates with the relative binding affinities of the three ligands for the 18C-18D duplex.
as §1
as §2, with “containing 110” for “containing 10”
To determine the nature of the aminoglycoside-induced inhibition of RT-catalyzed RNase H cleavage, the impact of RT concentration on neomycin-induced inhibition was examined. […] In the presence of 1 mM neomycin, increasing the concentrations of RT overcomes the RNase H inhibitory effect of the drug.

NC[C@H]1O[C@H](O[C@H]2[C@H](O)[C@@H](O[C@H]3O[C@H](CO)[C@@H](O)[C@H](N)[C@H]3O)[C@H](N)C[C@@H]2N)[C@H](O)[C@@H](O)[C@@H]1O.O=S(=O)(O)O [kanamycin A, kanamycin A monosulfate]
hierarchy of the extent of inhibition of RT-induced cleavage [1]: neomycin>paromomycin>tobramycin>kanamycin B>ribostamycin>>kanamycin A

NC[C@H]1O[C@H](O[C@H]2[C@H](O[C@@H]3O[C@H](CO)[C@@H](O)[C@H]3O)[C@@H](O)[C@H](N)C[C@@H]2N)[C@H](N)[C@@H](O)[C@@H]1O [ribostamycin, ribostamycin sulfate dihydrate]
hierarchy of the extent of inhibition of RT-induced cleavage [1]: neomycin>paromomycin>tobramycin>kanamycin B>ribostamycin>>kanamycin A | hierarchy of inhibition of RT-induced cleavage [2]: neomycin>paromomycin>ribostamycin

NC[C@H]1O[C@H](O[C@H]2[C@H](O)[C@@H](O[C@H]3O[C@H](CO)[C@@H](O)[C@H](N)[C@H]3O)[C@H](N)C[C@@H]2N)[C@H](N)C[C@@H]1O [tobramycin]
hierarchy of the extent of inhibition of RT-induced cleavage [1]: neomycin>paromomycin>tobramycin>kanamycin B>ribostamycin>>kanamycin A

NC[C@H]1O[C@H](O[C@H]2[C@H](O)[C@@H](O[C@H]3O[C@H](CO)[C@@H](O)[C@H](N)[C@H]3O)[C@H](N)C[C@@H]2N)[C@H](N)[C@@H](O)[C@@H]1O.O=S(=O)(O)O [kanamycin B, kanamycin B sulfate]
hierarchy of the extent of inhibition of RT-induced cleavage [1]: neomycin>paromomycin>tobramycin>kanamycin B>ribostamycin>>kanamycin A
